In patent publication US20240287080A1 (IDEAYA Biosciences Inc., priority 2021, published 2024):
Each block holds one molecule with its values, some of them ahead of it.

Molecular target: T1, Pol theta (1-899) (Homo sapiens, UniProt O75417)
T1 construct: Pol theta (1-899) (5 nM) in assay buffer
Assay: Pol theta ATPase activity, NADH oxidation-coupled enzymatic assay (ATPase NADH coupling: Standard Screening: hPolQ)
Format: biochemical
Settings: Pol theta (1-899) 5 nM
In short: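 NADH-coupled ATPase readout: 5 nM Pol theta (1-899) preincubated 15 min with 10-point compound series in Tris pH 7.80, KCl, MgCl2, DTT, BSA, Tween, glycerol, then 100 μM ATP, 300 nM 50-mer poly-dT ssDNA, NADH, PEP, LDH and PK added (stock levels). A340 followed 60 min; slopes fit four-parameter for IC50.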

[1] = NADH oxidation-coupled ATPase assay, compounds of Table 3

T1 sequence (O75417 1-899): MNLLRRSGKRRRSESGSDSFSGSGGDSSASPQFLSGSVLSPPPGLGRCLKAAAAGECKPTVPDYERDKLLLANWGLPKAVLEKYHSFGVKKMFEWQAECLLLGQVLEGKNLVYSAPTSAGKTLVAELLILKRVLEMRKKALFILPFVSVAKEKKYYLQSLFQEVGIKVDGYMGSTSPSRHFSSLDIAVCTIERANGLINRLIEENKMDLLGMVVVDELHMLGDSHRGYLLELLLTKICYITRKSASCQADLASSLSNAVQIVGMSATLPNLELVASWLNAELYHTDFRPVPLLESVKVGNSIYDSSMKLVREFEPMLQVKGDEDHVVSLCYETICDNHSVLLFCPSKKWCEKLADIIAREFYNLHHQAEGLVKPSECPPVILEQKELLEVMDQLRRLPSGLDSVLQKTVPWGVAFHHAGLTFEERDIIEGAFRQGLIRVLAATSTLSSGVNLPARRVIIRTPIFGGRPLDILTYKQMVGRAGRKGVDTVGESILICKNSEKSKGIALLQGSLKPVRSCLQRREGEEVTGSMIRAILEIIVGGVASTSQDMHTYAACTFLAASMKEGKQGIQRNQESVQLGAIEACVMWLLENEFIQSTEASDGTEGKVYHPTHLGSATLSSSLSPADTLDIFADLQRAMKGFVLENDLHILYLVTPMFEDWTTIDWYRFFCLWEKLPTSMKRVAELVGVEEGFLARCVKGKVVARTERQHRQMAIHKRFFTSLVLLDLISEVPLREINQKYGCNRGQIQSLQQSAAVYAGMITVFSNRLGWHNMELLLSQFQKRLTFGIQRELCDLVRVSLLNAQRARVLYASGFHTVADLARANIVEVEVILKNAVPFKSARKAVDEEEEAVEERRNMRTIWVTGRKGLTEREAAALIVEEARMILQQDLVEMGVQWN

- IC50 [1]: 1 to 10 µM
Compound: CNC(=O)c1cccc(-c2cc(C)ncc2C(=O)Nc2nnc(OC)s2)c1 [Example 343, N-(5-methoxy-1,3,4-thiadiazol-2-yl)-6-methyl-4-[3-(methylcarbamoyl)phenyl]pyridine-3-carboxamide]

- IC50 [1]: 1 to 10 µM
Compound: COc1nnc(NC(=O)c2cnc(C)cc2-c2cn(C)c3ccccc23)s1 [Example 464, N-(5-methoxy-1,3,4-thiadiazol-2-yl)-6-methyl-4-(1-methyl-1H-indol-3-yl)pyridine-3-carboxamide]

- IC50 [1]: 0.5 to 1 µM
Compound: COc1nnc(NC(=O)c2cnc(C)cc2-c2cccc(C)c2)s1 [Example 361, N-(5-methoxy-1,3,4-thiadiazol-2-yl)-6-methyl-4-(3-methylphenyl) pyridine-3-carboxamide]

- IC50 [1]: 0.2 to 0.5 µM
Compound: COc1nnc(NC(=O)c2cnc(C)cc2-c2cc(C)nc(C)c2)s1 [Example 469, N-(5-methoxy-1,3,4-thiadiazol-2-yl)-2′,6,6′-trimethyl-[4,4′-bipyridine]-3-carboxamide]

- IC50 [1]: 0.5 to 1 µM
Compound: COc1nnc(NC(=O)c2cnc(C)cc2-c2ccc3nccnc3c2)s1 [Example 341, N-(5-methoxy-1,3,4-thiadiazol-2-yl)-6-methyl-4-(quinoxalin-6-yl)pyridine-3-carboxamide]

- IC50 [1]: 1 to 10 µM
Compound: COc1nnc(NC(=O)c2cnc(C)cc2-c2cnc(N(C)C)nc2)s1 [Example 458, 4-(2-(dimethylamino)pyrimidin-5-yl)-N-(5-methoxy-1,3,4-thiadiazol-2-yl)-6-methylnicotinamide]

- IC50 [1]: 1 to 10 µM
Compound: COc1nnc(NC(=O)c2cnc(C)cc2-c2cccc(C(N)=O)c2)s1 [Example 488, 4-(3-carbamoylphenyl)-N-(5-methoxy-1,3,4-thiadiazol-2-yl)-6-methylnicotinamide]

- IC50 [1]: 0.5 to 1 µM
Compound: COc1nnc(NC(=O)c2cnc(C)cc2-c2ccc3[nH]ncc3c2)s1 [Example 487, 4-(1H-indazol-5-yl)-N-(5-methoxy-1,3,4-thiadiazol-2-yl)-6-methylnicotin amide]

- IC50 [1]: 1 to 10 µM
Compound: COc1nnc(NC(=O)c2cnc(C)cc2-c2cc(C(F)(F)F)cc(C(F)(F)F)c2)s1 [Example 333, 4-[3,5-bis(trifluoromethyl)phenyl]-N-(5-methoxy-1,3,4-thiadiazol-2-yl)-6-methylpyridine-3-carboxamide]

- IC50 [1]: 1 to 10 µM
Compound: COc1nnc(NC(=O)c2cnc(C)cc2-c2ccc3occc(=O)c3c2)s1 [Example 438, N-(5-methoxy-1,3,4-thiadiazol-2-yl)-6-methyl-4-(4-oxo-4H-chromen-6-yl)nicotinamide]

- IC50 [1]: 1 to 10 µM
Compound: COc1nnc(NC(=O)c2cnc(C)cc2-c2ccc(S(N)(=O)=O)cc2)s1 [Example 378, N-(5-methoxy-1,3,4-thiadiazol-2-yl)-6-methyl-4-(4-sulfamoylphenyl)pyridine-3-carboxamide]

- IC50 [1]: 1 to 10 µM
Compound: COc1nnc(NC(=O)c2cnc(C)cc2-c2cccc(CC(N)=O)c2)s1 [Example 472, 4-[3-(carbamoylmethyl)phenyl]-N-(5-methoxy-1,3,4-thiadiazol-2-yl)-6-methylpyridine-3-carboxamide]

- IC50 [1]: 1 to 10 µM
Compound: COc1nnc(NC(=O)c2cnc(C)cc2-c2cnn(Cc3ccccc3)c2)s1 [Example 468, 4-(1-benzyl-1H-pyrazol-4-yl)-N-(5-methoxy-1,3,4-thiadiazol-2-yl)-6-methylnicotinamide]

- IC50 [1]: 1 to 10 µM
Compound: COc1nnc(NC(=O)c2cnc(C)cc2-c2ccc(OC(F)F)cc2)s1 [Example 448, 4-[4-(difluoromethoxy)phenyl]-N-(5-methoxy-1,3,4-thiadiazol-2-yl)-6-methylpyridine-3-carboxamide]

Second part, the molecule before the results:

Compound: COc1nnc(NC(=O)c2cnc(C)cc2-c2cc3[nH]ncc3cc2OC)s1 [Example 67, N-(5-methoxy-1,3,4-thiadiazol-2-yl)-4-(5-methoxy-1H-indazol-6-yl)-6-methylnicotinamide]
- IC50 (Table 4, ATP, dT50 ssDNA): 1 to 10 µM

Compound: CCOc1ccc(Cl)cc1-c1cc(C)ncc1C(=O)Nc1nnc(OC)s1 [Example 53, 4-(5-chloro-2-ethoxyphenyl)-N-(5-methoxy-1,3,4-thiadiazol-2-yl)-6-methylnicotinamide]
- IC50 (Table 4, ATP, dT50 ssDNA): 0.2 to 0.5 µM

Compound: COc1cnc(Cl)cc1-c1cc(C)ncc1C(=O)Nc1nnc(O[C@@H]2CC[C@@]23CCOC3)s1 (racemic) [Example 295, rac-N-(5-(((1R,4S)-6-oxaspiro[3.4]octan-1-yl)oxy)-1,3,4-thiadiazol-2-yl)-2′-chloro-5′-methoxy-6-methyl-[4,4′-bipyridine]-3-carboxamide]
- IC50 [1]: ≤ 0.2 µM

Compound: COc1cnc(Cl)cc1-c1cc(C)ncc1C(=O)Nc1nnc(OC2CC2)s1 [Example 7, 2′-chloro-N-(5-cyclopropoxy-1,3,4-thiadiazol-2-yl)-5′-methoxy-6-methyl-(4,4′-bipyridine)-3-carboxamide]
- IC50 (Table 4, ATP, dT50 ssDNA): ≤ 0.2 µM

Compound: COc1cnc(Cl)cc1-c1cc(C)ncc1C(=O)Nc1nnc(O[C@H]2CCC[C@@H](O)C2)s1 (single isomer, unassigned) [Example 159]
- IC50 (Table 5, ATP, dT50 ssDNA): ≤ 0.2 µM

Compound: COc1nnc(NC(=O)c2cnc(C)cc2-c2cc(Cl)ncc2OC)s1 [Example 5, 2′-chloro-5′-methoxy-N-(5-methoxy-1,3,4-thiadiazol-2-yl)-6-methyl-(4,4′-bipyridine)-3-carboxamide]
- IC50 (Table 4, ATP, dT50 ssDNA): ≤ 0.2 µM

Compound: COc1cnc(Cl)c(F)c1-c1cc(C)ncc1C(=O)Nc1nnc(O[C@H]2C[C@H](OC)C2)s1 (single isomer, unassigned) [Example 151, 2′-chloro-3′-fluoro-5′-methoxy-N-(5-((1r,3r)-3-methoxycyclobutoxy)-1,3,4-thiadiazol-2-yl)-6-methyl-(4,4′-bipyridine)-3-carboxamide]
- IC50 (Table 5, ATP, dT50 ssDNA): ≤ 0.2 µM

Compound: Cc1cc(-c2cc(Cl)ncc2OC(F)F)c(C(=O)Nc2nnc(OC3COC3)s2)cn1 [Example 62, 2′-chloro-5′-(difluoromethoxy)-6-methyl-N-(5-(oxetan-3-yloxy)-1,3,4-thiadiazol-2-yl)-(4,4′-bipyridine)-3-carboxamide]
- IC50 (Table 4, ATP, dT50 ssDNA): ≤ 0.2 µM

Compound: COc1nnc(NC(=O)c2cnc(C)cc2-c2cc(C#N)cc(OC(F)(F)F)c2)s1 [Example 327, 4-[3-cyano-5-(trifluoromethoxy)phenyl]-N-(5-methoxy-1,3,4-thiadiazol-2-yl)-6-methylpyridine-3-carboxamide]
- IC50 [1]: 1 to 10 µM

Compound: COc1nnc(NC(=O)c2cnc(C)cc2-c2ccncc2OC)s1 [Example 101, 3′-methoxy-N-(5-methoxy-1,3,4-thiadiazol-2-yl)-6-methyl-(4,4′-bipyridine)-3-carboxamide]
- IC50 (Table 5, ATP, dT50 ssDNA): 1 to 10 µM

Compound: COc1nnc(NC(=O)c2cnc(C)cc2-c2cc(C)c([S@@+](C)[O-])cc2OC)s1 (single isomer, unassigned) [Example 308]
- IC50 [1]: 1 to 10 µM

Compound: COc1cnc(Cl)cc1-c1cc(C)ncc1C(=O)Nc1nnc(O[C@H]2CC[C@@H]([C@@H](C)O)CC2)s1 (single isomer, unassigned) [Example 212]
- IC50 (Table 5, ATP, dT50 ssDNA): ≤ 0.2 µM

Compound: COc1cnc(Cl)cc1-c1cc(C)ncc1C(=O)Nc1nnc(OC2CCCC2OC)s1 (stereo not shown) [Example 163, 2′-chloro-5′-methoxy-N-(5-((2-methoxycyclopentyl)oxy)-1,3,4-thiadiazol-2-yl)-6-methyl-(4,4′-bipyridine)-3-carboxamide]
- IC50 (Table 5, ATP, dT50 ssDNA): ≤ 0.2 µM

Compound: COc1nnc(NC(=O)c2cnc(C)cc2-c2cc(C)nnc2OC)s1 [Example 43, N-(5-methoxy-1,3,4-thiadiazol-2-yl)-4-(3-methoxy-6-methylpyridazin-4-yl)-6-methylnicotinamide]
- IC50 (Table 4, ATP, dT50 ssDNA): 0.2 to 0.5 µM

Compound: COc1nnc(NC(=O)c2cnc(C)cc2-c2cc(N)ncc2OC)s1 [Example 73, 2′-amino-5′-methoxy-N-(5-methoxy-1,3,4-thiadiazol-2-yl)-6-methyl-(4,4′-bipyridine)-3-carboxamide]
- IC50 (Table 4, ATP, dT50 ssDNA): 0.5 to 1 µM

Compound: COc1cnc(Cl)cc1-c1cc(C)ncc1C(=O)Nc1nnc(OC(C)C)s1 [Example 6, 2′-chloro-N-(5-isopropoxy-1,3,4-thiadiazol-2-yl)-5′-methoxy-6-methyl-(4,4′-bipyridine)-3-carboxamide]
- IC50 (Table 4, ATP, dT50 ssDNA): ≤ 0.2 µM

Compound: COc1nnc(NC(=O)c2cnc(C)cc2-c2c(Cl)cccc2OC(F)F)s1 [Example 55, 4-(2-chloro-6-(difluoromethoxy)phenyl)-N-(5-methoxy-1,3,4-thiadiazol-2-yl)-6-methylnicotinamide]
- IC50 (Table 4, ATP, dT50 ssDNA): 0.2 to 0.5 µM

Compound: COc1cnc(Br)cc1-c1cc(C)ncc1C(=O)Nc1nnc(O[C@H]2CCOC2)s1 [Example 122, (S)-2′-bromo-5′-methoxy-6-methyl-N-(5-((tetrahydrofuran-3-yl)oxy)-1,3,4-thiadiazol-2-yl)-(4,4′-bipyridine)-3-carboxamide]
- IC50 (Table 5, ATP, dT50 ssDNA): ≤ 0.2 µM

Compound: COc1cnc(Cl)cc1-c1cc(C)ncc1C(=O)Nc1nnc(OC2CCN(C3COC3)CC2)s1 [Example 280, 2′-chloro-5′-methoxy-6-methyl-N-(5-((1-(oxetan-3-yl)piperidin-4-yl)oxy)-1,3,4-thiadiazol-2-yl)-[4,4′-bipyridine]-3-carboxamide]
- IC50 [1]: ≤ 0.2 µM

Compound: Cc1cc(-c2cc(Cl)ncc2OC(F)F)c(C(=O)Nc2nnc(O[C@@H]3COC4(CC4)C3)s2)cn1 (single isomer, unassigned) [Example 232]
- IC50 (Table 5, ATP, dT50 ssDNA): ≤ 0.2 µM

Compound: COc1nnc(NC(=O)c2cnc(C)cc2-c2cc(Cl)ncc2C)s1 [Example 39, 2′-chloro-N-(5-methoxy-1,3,4-thiadiazol-2-yl)-5′,6-dimethyl-(4,4′-bipyridine)-3-carboxamide]
- IC50 (Table 4, ATP, dT50 ssDNA): ≤ 0.2 µM

Compound: COc1nnc(NC(=O)c2cnc(C)cc2-c2c(Cl)cccc2OC)s1 [Example 35, 4-(2-chloro-6-methoxyphenyl)-N-(5-methoxy-1,3,4-thiadiazol-2-yl)-6-methylnicotinamide]
- IC50 (Table 4, ATP, dT50 ssDNA): 0.2 to 0.5 µM

Compound: COc1nnc(NC(=O)c2nn(C)cc2-c2cc(Cl)ncc2OC)s1 [Example 107, 4-(2-chloro-5-methoxypyridin-4-yl)-N-(5-methoxy-1,3,4-thiadiazol-2-yl)-1-methyl-1H-pyrazole-3-carboxamide]
- IC50 (Table 5, values given as bound, ATP, dT50 ssDNA): > 10 µM
